# Experimental data from PMC8429421, “Structural basis for the tryptophan sensitivity of TnaC-mediated ribosome stalling” (Nature Communications, 2021).
# Target: T1, TnaC–ribosome complex (TnaC–70S) (Escherichia coli, UniProt P0AD89+P61175)
# T1 construct: nascent 24-residue TnaC as peptidyl-tRNA(Pro) in E. coli 70S ribosome; L-Trp site formed by TnaC, uL22 Lys90 and 23S rRNA (Psi746, G748, A752, U2609); cell-free translation (PURExpress; RTS100 HY for cryo-EM)
# Assay: toeprinting of stalled ribosomes in reconstituted cell-free translation, hyperbolic fit; cryo-EM structure […] Å
# Format: biochemical
# Conditions: PURExpress lacking amino acids, other 19 amino acids 0.3 mM each, 37 °C, 30 min; arrest at codon 24; apparent functional value, not an equilibrium constant; read-out: [L-Trp]0.5
# T1 sequence (P0AD89 whole entry, one chain of several): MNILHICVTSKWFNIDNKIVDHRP
compound,measurement,value
N[C@@H](Cc1c[nH]c2ccccc12)C(=O)O [L-Trp],EC50,320 µM
